Counter-ions that a name gives are not always drawn. Like-named read-outs stand apart in the source and are kept apart here.
Tests used:
Ba/F3 parental cells = assay: Cellular proliferation in Ba/F3 parental (IL3-dependent) cells; format: cell-based, murine; conditions: Mus musculus, BaF3
Protocol: (§1) Engineered lines expressing HER2YVMA and HER2 WT were prepared in HEK293 (human embryonic kidney cells), Ba/F3 (Interleukin 3 (IL3)-dependent murine pro B cell line), and BEAS2B (primary immortalized human bronchial epithelial cell line). Ba/F3, BEAS2B, and HEK293 cells were obtained from the American Type Culture Collection (ATCC, Manassas, VA). Parental Ba/F3 cells were grown in suspension in complete RPMI 1640 supplemented with 10% FBS and 1% P/S and 10 ng/ml interleukin 3 (IL3, Sigma-Aldrich). Hek293 and BEAS2B cells were grown as monolayers in DMEM supplemented with 10% FBS and 1% P/S. All cells were maintained and propagated in a humidified 5% CO2 incubator at 37° C.
(§2) Cell proliferation in non-adherent cells was investigated in Ba/F3 parental (IL3-dependent) and in the two IL3 independent cell clones tranduced to express mutant HER2 protein containing the YVMA insertion (Ba/F3 HER2YVMA). Cells were plated in DMEM supplemented with 10% FBS, 1% P/S, and 10 ng/ml IL3 (for parental Ba/F3 only) in 96-well white clear-bottom tissue culture plates (Costar, Sigma-Aldrich) at a starting cell density of 7500 cells. An 8-point standard curve with varying cell densities (starting at 100,000 cells and serially diluting down 2-fold) was prepared for each cell line and read after plating. Compound solutions were prepared in serum free media, and cells were treated as described above for adherent cells. Cell viability was determined by CellTiter Glo (Promega, Madison, WI) after 72 h. The results were converted to cell numbers using a standard curve; growth inhibition (GI50 values) were determined by Graph Pad Prism.
(§3) The results of these experiments show the ability of compounds to inhibit cell growth in HER2 dependent cell lines and a control cell line (Ba/F3 parental) are depicted in Table 4 in the columns titled “G150 (nM)”. Ba/F3 parental results fall under the heading “Ba/F3 parental-G150”, and Ba/F3 HER2YVMA fall under the heading “Ba/F3 YVMA-G150”.

HER2 = target: T1, HER2 (Homo sapiens, UniProt P04626); assay: HER2 occupancy assay in N87 cells; format: cell-based; conditions: concentration at which 50% of HER2 is irreversible bound, read-out: N87 HER2 Occ
T1 construct: BT474 and N87 cell lines which endogenously overexpress the HER2 wildtype (WT) protein; endogenous in cells; host or cells: BT474, N87
Protocol: In order to assess free HER2 protein, a biotinylated probe was utilized. BT474, N87, and Ba/F3-HER2YVMA cells were treated with test compound as described for HER2 signaling. After compound treatment, cells were washed three times with cold phosphate buffer saline (PBS, Life Technologies, Carlsbad, CA), and lysed in modified occupancy lysis buffer prepared with an irreversible biotinylated tool compound (1 μM) in 25 mM Tris pH 7.5, 150 mM NaCl, 1% Triton, and supplemented with cOmplete, EDTA-free Protease inhibitor cocktail (Roche), Phosphatase Inhibitor Cocktails 2 and 3 (Sigma-Aldrich), and 1 mM PMSF (Sigma-Aldrich).
To determine % occupancy, lysates were loaded into duplicate plates of the phospho (Tyr1248)/total ErbB2 whole cell lysate MSD kit (Meso-Scale Discovery) and incubated overnight. Plates were washed and incubation with either HER2-sulfoTag (1:50, Meso Scale Discovery) or Strep-Sulfo Tag (1:1000, Meso Scale Discovery), for detection of […]. A standard curve of untreated cells in serial dilution was included in each plate to independently fit streptavidin (Free HER2) and total HER2 MSD signals; non-specific signal (BSA control spots) was subtracted from each well. Free HER2 was then normalized by total HER2 for each sample. The results are reported as % DMSO control. The normalized data was fitted using a sigmoidal curve analysis program (Graph Pad Prism version 6) with variable Hill slope to determine EC50 values. The results are provided in Table 4, under columns titled “BT474-HER2 Occ”, “N87-HER2 Occ”, and “Ba/F3 YVMA-HER2 Occ”. HER2 Occ is the concentration of test compound at which 50% of HER2 is irreversible bound.

Ba/F3 HER2YVMA cells = assay: Cellular proliferation in Ba/F3 HER2YVMA cells; format: cell-based, murine; conditions: Mus musculus, BaF3, read-out: Ba/F3 YVMA GI50
Protocol: as §1
To generate Ba/F3, BEAS2B, and Hek-293 cells engineered with lentivirus to express HER2 WT or HER2YVMA, the cells were transduced with lentiviruses at multiplicity of infection (MOI) of 1 or 10; transduced cells were selected and maintained with G418 ([…]) (Geneticin, Life Technologies, Carlsbad, CA). Ba/F3 engineered cells were subjected to gradual withdrawal of interleukin 3 (IL-3, Sigma-Aldrich). After selection, IL3 independent Ba/F3 HER2YVMA, and BEAS2B HER2YVMA cells were cloned by limiting dilution. Hek293 HER2YVMA cells were used as pool. HER2 and phospho HER2 levels were confirmed by flow cytometery and immunoassay (MSD, Meso-Scale Discovery, Rockville, Maryland).
as §2, §3

EGFR = EGFR (Homo sapiens, UniProt P00533); assay: EGFR occupancy in N87 cells; format: cell-based; parameters: endogenous in cells; host or cells: N87
Protocol: In order to assess free EGFR protein, a biotinylated probe was utilized as described for HER2 occupancy. N87 cells were plated, treated, and lysed as described for HER2 occupancy method. After treatment, the cells were washed three times with cold PBS, lysed at room temperature for 1 hr in modified occupancy lysis buffer (prepared as described in section titled “HER2 Occupancy Assay”). Lysates were stored at −70° C. until further analysis. For determination of % occupancy, lysates were loaded into duplicate plates of the phospho (Tyr 1068)/total EGFR whole cell lysate kit (Meso-Scale Discovery) and incubated overnight. Plates were washed and incubated with either EGFR-sulfoTag (1:50, Meso Scale Discovery) or Strep-Sulfo Tag (1:1000, Meso Scale Discovery), for detection of free and total EGFR, respectively. BSA control spots included in MSD plates were used to subtract non-specific signal. A standard curve of untreated cells in serial dilution was included in each plate to convert streptavidin and total EGFR MSD signals into free EGFR and total EGFR. Free EGFR was normalized to total EGFR for each sample. Data, reported as % […] control, was fitted using a sigmoidal curve analysis program (Graph Pad Prism version 6) with variable Hill slope to determine EC50 values. The results are provided in Table 4, under column titled “N87-EGFR Occ”. EGFR Occ is the concentration of test compound at which 50% of EGFR is irreversible bound.

[1] = N87 cells, concentration at which 50% of EGFR is irreversible bound, read-out: N87 EGFR Occ

Sequence of EGFR (P00533 25-1210): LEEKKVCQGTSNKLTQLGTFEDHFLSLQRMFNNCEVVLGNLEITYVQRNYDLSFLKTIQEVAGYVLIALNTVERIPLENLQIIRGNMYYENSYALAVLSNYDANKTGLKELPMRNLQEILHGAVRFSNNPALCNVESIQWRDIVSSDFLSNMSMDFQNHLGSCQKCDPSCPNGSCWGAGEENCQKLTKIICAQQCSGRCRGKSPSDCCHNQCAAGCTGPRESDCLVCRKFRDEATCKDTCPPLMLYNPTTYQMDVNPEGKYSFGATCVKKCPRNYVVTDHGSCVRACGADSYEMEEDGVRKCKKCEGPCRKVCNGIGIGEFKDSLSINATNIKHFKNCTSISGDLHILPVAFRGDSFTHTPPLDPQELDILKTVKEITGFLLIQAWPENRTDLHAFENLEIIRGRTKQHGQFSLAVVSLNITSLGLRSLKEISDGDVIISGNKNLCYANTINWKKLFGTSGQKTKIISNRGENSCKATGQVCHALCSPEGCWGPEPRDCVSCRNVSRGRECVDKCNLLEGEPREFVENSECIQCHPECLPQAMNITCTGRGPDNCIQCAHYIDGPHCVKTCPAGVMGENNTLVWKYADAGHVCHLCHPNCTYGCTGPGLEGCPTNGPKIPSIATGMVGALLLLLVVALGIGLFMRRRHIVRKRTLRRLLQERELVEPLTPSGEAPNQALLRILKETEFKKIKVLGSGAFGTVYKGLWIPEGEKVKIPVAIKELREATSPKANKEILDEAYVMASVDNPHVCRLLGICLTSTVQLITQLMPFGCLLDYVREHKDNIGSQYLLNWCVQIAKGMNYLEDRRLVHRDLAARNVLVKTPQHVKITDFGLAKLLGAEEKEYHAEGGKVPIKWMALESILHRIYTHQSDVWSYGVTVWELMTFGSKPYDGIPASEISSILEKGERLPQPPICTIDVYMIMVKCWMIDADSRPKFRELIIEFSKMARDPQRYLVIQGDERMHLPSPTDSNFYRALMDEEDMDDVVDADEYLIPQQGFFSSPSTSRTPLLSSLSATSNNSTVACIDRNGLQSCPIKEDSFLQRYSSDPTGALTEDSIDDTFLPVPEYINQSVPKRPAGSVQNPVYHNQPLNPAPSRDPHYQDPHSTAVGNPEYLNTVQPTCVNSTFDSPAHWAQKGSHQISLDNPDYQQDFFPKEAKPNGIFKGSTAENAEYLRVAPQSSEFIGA
T1 sequence (P04626 23-1255): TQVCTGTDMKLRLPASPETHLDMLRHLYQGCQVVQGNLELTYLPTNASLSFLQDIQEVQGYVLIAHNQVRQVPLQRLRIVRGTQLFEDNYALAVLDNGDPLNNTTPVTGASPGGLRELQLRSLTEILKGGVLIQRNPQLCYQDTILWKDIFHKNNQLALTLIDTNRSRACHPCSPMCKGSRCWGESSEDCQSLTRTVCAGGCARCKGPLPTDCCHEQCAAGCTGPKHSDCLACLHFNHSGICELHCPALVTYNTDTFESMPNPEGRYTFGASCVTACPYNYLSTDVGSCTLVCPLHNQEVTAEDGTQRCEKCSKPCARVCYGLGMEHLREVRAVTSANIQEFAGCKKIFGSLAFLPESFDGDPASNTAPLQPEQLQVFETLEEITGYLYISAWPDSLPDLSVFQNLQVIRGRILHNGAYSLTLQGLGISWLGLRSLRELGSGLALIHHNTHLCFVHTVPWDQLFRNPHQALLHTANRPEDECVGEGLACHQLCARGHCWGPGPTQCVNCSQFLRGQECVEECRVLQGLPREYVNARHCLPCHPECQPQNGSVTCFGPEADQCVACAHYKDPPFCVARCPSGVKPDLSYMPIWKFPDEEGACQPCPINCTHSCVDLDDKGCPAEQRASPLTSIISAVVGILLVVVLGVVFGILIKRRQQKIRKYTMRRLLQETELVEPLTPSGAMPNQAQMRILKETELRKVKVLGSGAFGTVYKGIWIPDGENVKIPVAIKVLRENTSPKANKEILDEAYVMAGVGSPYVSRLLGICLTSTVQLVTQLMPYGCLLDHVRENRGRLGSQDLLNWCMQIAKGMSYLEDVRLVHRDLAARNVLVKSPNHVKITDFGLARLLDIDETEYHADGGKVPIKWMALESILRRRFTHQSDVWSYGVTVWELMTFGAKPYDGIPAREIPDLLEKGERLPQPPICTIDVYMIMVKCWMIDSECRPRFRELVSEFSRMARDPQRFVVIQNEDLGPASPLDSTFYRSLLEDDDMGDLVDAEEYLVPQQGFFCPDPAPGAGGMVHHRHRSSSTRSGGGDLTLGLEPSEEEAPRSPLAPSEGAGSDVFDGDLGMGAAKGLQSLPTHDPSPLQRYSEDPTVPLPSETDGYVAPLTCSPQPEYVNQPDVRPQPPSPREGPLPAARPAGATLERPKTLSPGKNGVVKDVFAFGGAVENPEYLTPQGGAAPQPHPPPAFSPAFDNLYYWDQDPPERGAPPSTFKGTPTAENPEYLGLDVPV

SMILES	GI50 (Ba/F3 HER2YVMA cells)	EC50 (EGFR; [1])	GI50 (Ba/F3 parental cells)	EC50 (HER2)	EC50 (EGFR)
Cc1ccc(Oc2ccc(Nc3ncnc4sc5c(c34)CCN(C(=O)/C=C/CN(C)C)C5)cc2C)cn1 [Compound 8, (E)-4-(Dimethylamino)-1-(4-((3-methyl-4-((6-methylpyridin-3-yl)oxy)phenyl)amino)-5,6-dihydropyrido[4′,3′:4,5]thieno[2,3-d]pyrimidin-7(8H)-yl)but-2-en-1-one]	< 100 nM	< 100 nM	1 to 10 µM	< 100 nM	–
Cc1cc(Nc2ncnc3sc4c(c23)CCN(C(=O)/C=C/CN2CCOCC2)C4)ccc1Oc1ccc2ncnn2c1 [Compound 12]	–	> 1000 nM	–	< 100 nM	–
Cc1ccc(Oc2ccc(Nc3ncnc4sc5c(c34)CCN(C(=O)/C=C/CN3CC4CC(C3)O4)C5)cc2C)cn1 [Compound 15]	–	< 100 nM	–	< 100 nM	–
Cc1ccc(Oc2ccc(Nc3ncnc4sc5c(c34)CCN(C(=O)/C=C/CN3CC4CCC(C4)C3)C5)cc2C)cn1 [Compound 16, (E)-4-(3-azabicyclo[3.2.1]octan-3-yl)-1-(4-((3-methyl-4-((6-methylpyridin-3-yl)oxy)phenyl)amino)-5,8-dihydropyrido[4′,3′:4,5]thieno[2,3-d]pyrimidin-7(6H)-yl)but-2-en-1-one benzenesulfonate salt]	–	–	–	< 100 nM	100 to 350 nM
Cc1ccc(Oc2ccc(Nc3ncnc4sc5c(c34)CCN(C(=O)/C=C/CN3CCOCC3)C5)cc2C)cn1 [Compound 17, (E)-1-(4-((3-Methyl-4-((6-methylpyridin-3-yl)oxy)phenyl)amino)-5,6-dihydropyrido[4′,3′:4,5]thieno[2,3-d]pyrimidin-7(8H)-yl)-4-morpholinobut-2-en-1-one]	–	100 to 350 nM	–	< 100 nM	–
Cc1cc(Nc2ncnc3sc4c(c23)CCN(C(=O)/C=C/CN(C)C)C4)ccc1Oc1ccn2ccnc2c1 [Compound 126, (E)-4-(dimethylamino)-1-(4-((4-(imidazo[1,2-a]pyridin-7-yloxy)-3-methylphenyl)amino)-5,8-dihydropyrido[4′,3′:4,5]thieno[2,3-d]pyrimidin-7(6H)-yl)but-2-en-1-one]	< 100 nM	–	1 to 10 µM	–	–
Cc1nc2cc(Oc3ccc(Nc4ncnc5sc6c(c45)CCN(C(=O)/C=C/CN(C)C)C6)cc3C)ccn2n1 [Compound 127, (E)-4-(dimethylamino)-1-(4-((3-methyl-4-((2-methyl-[1,2,4]triazolo[1,5-a]pyridin-7-yl)oxy)phenyl)amino)-5,6-dihydropyrido[4′,3′:4,5]thieno[2,3-d]pyrimidin-7(8H)-yl)but-2-en-1-one]	100 to 1000 nM	–	1 to 10 µM	–	–

Now from value to compound, other results behind:

GI50 (Ba/F3 HER2YVMA cells)	EC50 (EGFR; [1])	SMILES	GI50 (Ba/F3 parental cells)	EC50 (HER2)	EC50 (EGFR)
–	< 100 nM	Cc1ccc(Oc2ccc(Nc3ncnc4sc5c(c34)CCN(C(=O)/C=C/CN3CC4CCC3C4)C5)cc2C)cn1 (stereo not shown) [Compound 14]	–	< 100 nM	–
< 100 nM	–	Cc1ccc(Oc2ccc(Nc3ncnc4sc5c(c34)CN(C(=O)/C=C/CN(C)C)CC5)cc2C)cn1 [Compound 108, (E)-4-(Dimethylamino)-1-(4-((3-methyl-4-((6-methylpyridin-3-yl)oxy)phenyl)amino)-7,8-dihydropyrido[3′,4′:4,5]thieno[2,3-d]pyrimidin-6(5H)-yl)but-2-en-1-one]	1 to 10 µM	–	–
< 100 nM	–	Cc1ccc(Oc2ccc(Nc3ncnc4sc5c(c34)CCN(C(=O)/C=C/CN3CC[C@H](F)C3)C5)cc2C)cn1 [Compound 124]	1 to 10 µM	–	–
< 100 nM	> 1000 nM	COc1ccc(Oc2ccc(Nc3ncnc4sc5c(c34)CN(C(=O)/C=C/CN(C)C)C5)cc2C)cn1 [Compound 128, (E)-4-(dimethylamino)-1-(4-((4-((6-methoxypyridin-3-yl)oxy)-3-methylphenyl)amino)-5,7-dihydro-6H-pyrrolo[3′,4′:4,5]thieno[2,3-d]pyrimidin-6-yl)but-2-en-1-one]	1 to 10 µM	< 100 nM	–
< 100 nM	100 to 350 nM	Cc1ccc(Oc2ccc(Nc3ncnc4sc5c(c34)CN(C(=O)/C=C/CN(C)C)C5)cc2Cl)cn1 [Compound 129, (E)-1-(4-((3-Chloro-4-((6-methylpyridin-3-yl)oxy)phenyl)amino)-5H-pyrrolo[3′,4′:4,5]thieno[2,3-d]pyrimidin-6(7H)-yl)-4-(dimethylamino)but-2-en-1-one]	–	< 100 nM	–
< 100 nM	–	Cc1cc(Nc2ncnc3sc4c(c23)CN(C(=O)/C=C/CN(C)C)C4)ccc1Oc1ccn2ncnc2c1 [Compound 130, (E)-1-(4-((4-([1,2,4]Triazolo[1,5-a]pyridin-7-yloxy)-3-methylphenyl)amino)-5H-pyrrolo[3′,4′:4,5]thieno[2,3-d]pyrimidin-6(7H)-yl)-4-(dimethylamino)but-2-en-1-one]	1 to 10 µM	–	–

— patent US20240391931A1 (Bristol-Myers Squibb Company, priority 2021, published 2024)
